Source: patent US4590061A, “Antimicrobial plaque disclosing agent” (priority 1985, dated 1986)
Read-outs that look alike come from different tables or passages of the source.

Columns and labels:
[1] = Approximate retention times in oral tissues
Description: The approximate retention times in oral tissues of six alkaloids found in extracts from Sanguinaria canadensis is shown in Table IV.

[2] = Visual plaque disclosure scoring in healthy volunteers (Table I); assay type: in vivo; details: for Mean Plaque Area Score, 1 Hour later / Mean Plaque Area Score, Baseline: visual assessment
Protocol: Sanguinarine chloride was compared to two standard disclosing dyes, erythrosine and sodium fluorescein. At weekly interval healthy volunteers underwent a 12-24 hour, no oral hygiene period. Subjects then used one of the following: erythrosine, sodium flourescein, or sanguinarine chloride. Subjects rinsed two times with 15 ml. of the rinse, while the erythrosine and sodium fluorescein were used according to customary practice. Color was evaluated under ambient light after erythrosine, under ambient light for sodium fluorescein, and under longwave UV fluorescent light for sanguinarine. The color was scored for location, amount, and area.
All of the disclosing agents colored soft dental deposits at gingival margins and at the dorsal surface of the tongue. […] Mean values of plaque were measured for all disclosants.
(§1) This was the oral rinse used for the tests described in Tables I, II, and III.

[3] = tested on: human dental plaque forming microorganisms; test: Reduction of dental plaque / inactivation of plaque forming microorganisms in vitro; assay type: cell-based
variety of microorganism = test: Antimicrobial properties (general statement); assay type: cell-based
[4] = assay type: in vivo
Description: This would indicate that the retention of sanguinarine in plaque may be responsible for its clinical effectiveness in plaque assays, and that plaque may serve as a reservoir for sanguinarine.
as §1

[5] = In vivo plaque retention of sanguinarine (HPLC)
Description: as §1

[6] = alkaloids found in extracts from Sanguinaria canadensis
[7] = human, in vivo, po, In Vivo Plaque Retention of Sanguinarine

SMILES	Approximate Retention time (in oral tissues) [1, 6] [min]	Mean Plaque Area Score, 1 Hour later [2]	Mean Plaque Area Score, Baseline [2]	further results
COc1ccc2c(c[n+](C)c3c4cc5c(cc4ccc23)OCO5)c1OC [Chelerythrine]	–	–	–	Approximate Retention time (in oral tissues) [1]: 16.5 to 17.0 min
COc1cc(OC)c2c(c[n+](C)c3c4cc5c(cc4ccc23)OCO5)c1OC [Chelilutine]	15.5 to 16.0	–	–	–
COc1cc2c(c3c[n+](C)c4c5cc6c(cc5ccc4c13)OCO6)OCO2 [Chelirubine]	~7.5	–	–	–
O=C1OC2(c3ccccc31)c1cc(I)c(O)c(I)c1Oc1c2cc(I)c(O)c1I [Erythrosine, reference compound]	–	2.18 ± 0.5	2.86 ± 0.43	–
COc1cc2ccc3c4c(OC)cc(OC)c(OC)c4c[n+](C)c3c2cc1OC [Sanguilutine]	18.5 to 19.0	–	–	–
C[n+]1cc2c3c(ccc2c2ccc4cc5c(cc4c21)OCO5)OCO3 [Sanguinarine chloride]	–	2.86 ± 0.26	2.87 ± 0.23	killing at 25 µg/mL ([3]; Homo sapiens, 25 micrograms per milliliter, read-out: reduction of dental plaque by inactivating plaque forming microorganisms): 100%; comparison with chlorhexidine in inhibition of human dental plaque forming microorganisms ([3]; in vitro, versus chlorhexidine (Hibitane)): compated favorably in vitro with chlorhexidine; plaque disclosure ([2]; sanguinarine chloride mouthwash): disclosed plaque effectively; duration of disclosure ([2]; versus erythrosine and sodium fluorescein): lasted significantly longer than for the other two disclosing dyes; antimicrobial properties (variety of microorganism): strong antimicrobial properties
C[n+]1cc2c3c(ccc2c2ccc4cc5c(cc4c21)OCO5)OCO3 [Sanguinarine]	9.5 to 10.0	–	–	levels in saliva relative to anti-glycolytic effect [4]: high enough to exert an anti-glycolytic effect on saliva; level in plaque versus in vitro minimum inhibitory concentrations ([5]; HPLC, plaque): much higher in vitro minimum inhibitory concentrations; In Vivo Plaque Retention of Sanguinarine ([5]; human, in vivo, po, 1 h): 46 ug/g of wet plaque; concentration at 1 h [5, 7]: 56000 ng/g; concentration at 2 h [5, 7]: 27000 ng/g
COc1cc2ccc3c4c(OC)cc5c(c4c[n+](C)c3c2cc1OC)OCO5 [Sanguirubine]	12.5 to 13.0	–	–	–
O=C1OC2(c3ccc(O)cc3Oc3cc(O)ccc32)c2ccccc21 [Sodium Fluorescein, reference compound]	–	1.74 ± 0.45	2.84 ± 0.22	–
